Among the data in patent US20150057261A1, “AZETIDINE DERIVATIVES AS SPHINGOSINE-1 PHOSPHATE RECEPTORS MODULATORS” (Allergan, Inc., priority 2013, published 2015) are EC50 values, retold here.

One may read the pEC50 as the negative decadic logarithm of the EC50, by convention in mol/L. Low values mean a high EC50, high ones a low EC50.

pEC50: −log10 of the molar value.

For the experiment, the target named is T1, human S1P1 receptor (Homo sapiens, UniProt P21453).
T1 construct: expressed in transfected cells; membranes used
T1 sequence (P21453 whole entry): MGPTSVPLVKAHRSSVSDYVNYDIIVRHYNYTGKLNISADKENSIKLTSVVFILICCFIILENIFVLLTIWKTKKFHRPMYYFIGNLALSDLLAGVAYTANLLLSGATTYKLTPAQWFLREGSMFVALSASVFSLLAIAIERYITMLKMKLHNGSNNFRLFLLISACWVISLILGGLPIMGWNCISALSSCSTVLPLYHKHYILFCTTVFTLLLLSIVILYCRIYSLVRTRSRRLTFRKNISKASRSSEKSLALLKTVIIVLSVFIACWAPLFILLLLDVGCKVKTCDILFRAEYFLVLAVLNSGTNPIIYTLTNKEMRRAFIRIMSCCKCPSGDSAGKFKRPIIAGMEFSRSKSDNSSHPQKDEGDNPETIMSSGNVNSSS
The experiment can be described thus: GTP γ35S binding assay for S1P1 activity. In kind it is biochemical. As to conditions: membranes of cells stably expressing the S1P1 receptor. Here is the method: Compounds were synthesized and tested for S1P1 activity using the GTP γ^35S binding assay. These compounds may be assessed for their ability to activate or block activation of the human S1P1 receptor in cells stably expressing the S1P1 receptor.
GTP γ^35S binding was measured in the medium containing (mM) HEPES 25, pH 7.4, MgCl2 10, NaCl 100, dithiothreitol 0.5, digitonin 0.003%, 0.2 nM GTP γ^35S, and 5 μg membrane protein in a volume of 150 μl. Test compounds were included in the concentration range from 0.08 to 5,000 nM unless indicated otherwise. Membranes were incubated with 100 μM 5′-adenylylimidodiphosphate for 30 min, and subsequently with 10 μM GDP for 10 min on ice. Drug solutions and membrane were mixed, and then reactions were initiated by adding GTP γ^35S and continued for 30 min at 25° C. Reaction mixtures were filtered over Whatman GF/B filters under vacuum, and washed three times with 3 mL of ice-cold buffer (HEPES 25, pH7.4, MgCl2 10 and NaCl 100). Filters were dried and mixed with scintillant, and counted for ^35S activity using a β-counter. Agonist-induced GTP γ^35S binding was obtained by subtracting that in the absence of agonist. Binding data were analyzed using a non-linear regression method. In case of antagonist assay, the reaction mixture contained 10 nM […] in the presence of test antagonist at concentrations ranging from 0.08 to 5000 nM.
Compound `Cc1ccc(CC(CCCCc2ccc(CN3CC(C(=O)O)C3)cc2)c2cccc(Cl)c2)cc1C` (stereo not drawn) [Compound 1, 1-{4-[5-(3-Chlorophenyl)-6-(3,4-dimethylphenyl)hexyl]benzyl}azetidine-3-carboxylic acid] had a pEC50 of 7.19.

`Cc1ccc(CC(CCCc2ccc(CN3CC(C(=O)O)C3)cc2)c2cccc(Cl)c2)cc1C` (stereo not drawn) [Compound 2, 1-{4-[4-(3-Chlorophenyl)-5-(3,4-dimethylphenyl)pentyl]benzyl}azetidine-3-carboxylic acid]: the pEC50 is 7.77.

`Cc1ccc(CC(CCCCc2ccc(CN3CC(C(=O)O)C3)cc2)c2cc(F)cc(F)c2)cc1C` (stereo not drawn) [Compound 3, 1-{4-[5-(3,5-Difluorophenyl)-6-(3,4-dimethylphenyl)hexyl]benzyl}azetidine-3-carboxylic acid] gave a negative logarithm of the EC50 (pEC50) of 8.13.
